Source: patent US8247211B2, “Glycopeptide antibiotics” (American Cyanamid Company, priority 2001, dated 2012)
≈ marks a conversion by molar mass, not a printed value.

Columns and labels:
[1] = system: Enterococcus sp.; assay: In vitro antibacterial evaluation: minimum inhibitory concentration (MIC), broth dilution method; assay type: cell-based; conditions: 18 hours at 35° C.
How it was run: (§1)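 Using Muller-Hinton II […] and an inoculum of 5×10^5 CFU/mL, antibiotic dilutions from 64 down to 0.06 μg/mL were tested following NCCLS M7-A2. The MIC is the lowest concentration inhibiting growth, including in methicillin-, penicillin- or vancomycin-resistant clinical isolates.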

[2] = system: Escherichia coli; assay: as above; assay type: cell-based; conditions: 18 hours at 35° C.
How it was run: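 NCCLS M7-A2 broth dilution with Mueller-Hinton II, testing 64-0.06 μg/mL antibiotic against 5×10^5 CFU/mL inocula. Test strains include recent methicillin-, penicillin- or vancomycin-resistant clinical isolates. MIC is the lowest concentration preventing growth.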

[3] = system: Staphylococcus sp.; assay: as above; assay type: cell-based
How it was run: as §1

[4] = system: Streptococcus sp.; assay: as above; assay type: cell-based; conditions: 18 hours at 35° C.
How it was run: as §1

[5] = system: Staphylococcus aureus-SMITH (GC 4543); assay: Acute lethal infection in mice (ED50); assay type: in vivo; conditions: female CD-1 mice, intraperitoneal challenge, intravenous dose 30 min. after infection, 7 day survival ratios
How it was run: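 Female CD-1 mice challenged intraperitoneally with a bacterial dose lethal to untreated controls within 24-48 h. Compound given intravenously in saline or 5% dextrose 30 min post-infection, five mice per dose; ED50 from 7-day survival pooled over 3 tests.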

[6] = Anatomic pathology (heart and kidney histopathology) in mice; assay type: in vivo, CD-1 mice; conditions: 20 mg/kg intravenously daily for 9 days, microscopic histopathology on day 10
How it was run: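 Juvenile CD-1 mice (20 days old; 5 vehicle, 5 treated) received glycopeptide antibiotic 20 mg/kg i.v. daily for 9 days. Necropsied tissues formalin-fixed, paraffin-embedded, H&E stained and examined microscopically; findings graded slight to severe versus controls.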

[7] = broth dilution, inoculum 5×10^5 CFU/mL

## CC(C1CCCCC1)C1NC(=O)CNC(=O)C(CO)NC(=O)C(C(O)C2CNC(=N)N2C2OC(CO)C(O)C(O)C2O)NC(=O)C(C(O)C2CNC(=N)N2)NC(=O)C(Cc2ccc(OC3OC(CO)C(OC4OC5COC6(OC5C(O)C4O)C4CC5CC(C4)CC6C5)C(O)C3O)cc2)NC1=O (stereo not drawn) [Example 221, Cyclo[3-cyclohexyl-2-aminobutanoyl-O-[4-O-[4,6-O-(2-adamantylidene)hexopyranosyl]hexopyranosyl]tyrosyl-3-(2-iminoimidazolidin-4-yl)seryl-3-(3-hexopyranosyl-2-iminoimidazolidin-4-yl)serylserylglycyl]]
[1]; Enterococcus avium (GC 4558)
  MIC Enterococcus avium (GC 4558): 2 µg/mL (≈ 1.4 µM)
[1]; Enterococcus faecalis (ATCC 29212)
  MIC Enterococcus faecalis (ATCC 29212): 2 µg/mL (≈ 1.4 µM)
[1]; Enterococcus faecalis (GC 2242)
  MIC Enterococcus faecalis (GC 2242): 2 µg/mL (≈ 1.4 µM)
[1]; Enterococcus faecalis (GC 2691)
  MIC Enterococcus faecalis (GC 2691): 2 µg/mL (≈ 1.4 µM)
[1]; Enterococcus faecalis (GC 3059)
  MIC Enterococcus faecalis (GC 3059): 1 µg/mL (≈ 0.698 µM)
[1]; Enterococcus faecalis (GC 4552)
  MIC Enterococcus faecalis (GC 4552): 2 µg/mL (≈ 1.4 µM)
[1]; Enterococcus faecalis (GC 4553)
  MIC Enterococcus faecalis (GC 4553): 2 µg/mL (≈ 1.4 µM)
[1]; Enterococcus faecalis (GC 4554)
  MIC Enterococcus faecalis (GC 4554): 2 µg/mL (≈ 1.4 µM)
[1]; Enterococcus faecalis (GC 6189)
  MIC Enterococcus faecalis (GC 6189): 1 µg/mL (≈ 0.698 µM)
[1]; Enterococcus faecium (GC 2243)
  MIC Enterococcus faecium (GC 2243): 2 µg/mL (≈ 1.4 µM)
[1]; Enterococcus faecium (GC 4556)
  MIC Enterococcus faecium (GC 4556): 2 µg/mL (≈ 1.4 µM)
[1]; Enterococcus faecium (GC 4557)
  MIC Enterococcus faecium (GC 4557): 1 µg/mL (≈ 0.698 µM)
[1]; [7]
  MIC Enterococcus avium (GC 4558): 2 µg/mL (≈ 1.4 µM)
  MIC Enterococcus faecalis (ATCC 29212): 2 µg/mL (≈ 1.4 µM)
  MIC Enterococcus faecalis (GC 2242): 2 µg/mL (≈ 1.4 µM)
  MIC Enterococcus faecalis (GC 2691): 2 µg/mL (≈ 1.4 µM)
  MIC Enterococcus faecalis (GC 3059): 1 µg/mL (≈ 0.698 µM)
  MIC Enterococcus faecalis (GC 4552): 2 µg/mL (≈ 1.4 µM)
  MIC Enterococcus faecalis (GC 4553): 2 µg/mL (≈ 1.4 µM)
  MIC Enterococcus faecalis (GC 4554): 2 µg/mL (≈ 1.4 µM)
  MIC Enterococcus faecalis (GC 6189): 1 µg/mL (≈ 0.698 µM)
  MIC Enterococcus faecium (GC 2243): 2 µg/mL (≈ 1.4 µM)
  MIC Enterococcus faecium (GC 4556): 2 µg/mL (≈ 1.4 µM)
  MIC Enterococcus faecium (GC 4557): 1 µg/mL (≈ 0.698 µM)
[2]; Escherichia coli (ATCC 25922)
  MIC Escherichia coli (ATCC 25922): 64 µg/mL (≈ 44.6 µM)
[2]; Escherichia coli (GC 4559)
  MIC Escherichia coli (GC 4559): 32 µg/mL (≈ 22.3 µM)
[2]; Escherichia coli (GC 4560)
  MIC Escherichia coli (GC 4560): 2 µg/mL (≈ 1.4 µM)
[3]; strain ATCC 29213
  MIC Staphylococcus aureus (ATCC 29213): 1 µg/mL (≈ 0.698 µM)
[3]; strain GC 1131
  MIC Staphylococcus aureus (GC 1131): 2 µg/mL (≈ 1.4 µM)
[3]; strain GC 3051
  MIC Staphylococcus aureus (GC 3051): 2 µg/mL (≈ 1.4 µM)
[3]; strain GC 3053
  MIC Staphylococcus aureus (GC 3053): 1 µg/mL (≈ 0.698 µM)
[3]; strain GC 4541
  MIC Staphylococcus aureus (GC 4541): 2 µg/mL (≈ 1.4 µM)
[3]; strain GC 4542
  MIC Staphylococcus aureus (GC 4542): 2 µg/mL (≈ 1.4 µM)
[3]; strain GC 4543
  MIC Staphylococcus aureus-SMITH (GC 4543): 2 µg/mL (≈ 1.4 µM)
[3]; strain GC 4544
  MIC Staphylococcus aureus (GC 4544): 2 µg/mL (≈ 1.4 µM)
[3]; strain GC 4545
  MIC Staphylococcus aureus (GC 4545): 2 µg/mL (≈ 1.4 µM)
[3]; strain GC 4546
  MIC Staphylococcus haemolyticus (GC 4546): 2 µg/mL (≈ 1.4 µM)
[3]; strain GC 4547
  MIC Coagulase Negative Staphylococcus (GC 4547): 2 µg/mL (≈ 1.4 µM)
[3]; strain GC 4548
  MIC Coagulase Negative Staphylococcus (GC 4548): 1 µg/mL (≈ 0.698 µM)
[3]; strain GC 4549
  MIC Coagulase Negative Staphylococcus (GC 4549): 1 µg/mL (≈ 0.698 µM)
[3]; strain GC 4551
  MIC Coagulase Negative Staphylococcus (GC 4551): 2 µg/mL (≈ 1.4 µM)
[4]; Streptococcus agalactiae (GC 4564)
  MIC Streptococcus agalactiae (GC 4564): <0.12 µg/mL
[4]; Streptococcus pneumoniae (ATCC 6301)
  MIC Streptococcus pneumoniae (ATCC 6301): <0.12 µg/mL
[4]; Streptococcus pneumoniae (GC 1894)
  MIC Streptococcus pneumoniae (GC 1894): <0.12 µg/mL
[4]; Streptococcus pneumoniae (GC 4565)
  MIC Streptococcus pneumoniae (GC 4565): <0.12 µg/mL
[4]; Streptococcus pyogenes (GC 4563)
  MIC Streptococcus pyogenes (GC 4563): <0.12 µg/mL
[4]; [7]
  MIC Streptococcus agalactiae (GC 4564): <0.12 µg/mL
  MIC Streptococcus pneumoniae (ATCC 6301): <0.12 µg/mL
  MIC Streptococcus pneumoniae (GC 1894): <0.12 µg/mL
  MIC Streptococcus pneumoniae (GC 4565): <0.12 µg/mL
  MIC Streptococcus pyogenes (GC 4563): <0.12 µg/mL
[5]
  median effective dose (ED50), Staphylococcus aureus-SMITH (GC 4543): 0.03 mg/kg
[6]
  Anatomical Pathology (Day 10), Heart: 0
  Anatomical Pathology (Day 10), Kidney: 0
